Each structure is given as a SMILES string. Where a name gives a salt, the structure may show the parent alone.

For the first test, the target named is T1, Serine Palmitoyl Transferase (SPT); microsomes from HEK 293 cells stably transfected with human LCB2 subunit of SPT (Homo sapiens, UniProt O15270).
T1 construct: expressed in transfected cells; host or cells: HEK 293 cells stably transfected with LCB2; microsomal fraction
T1 sequence (O15270 1-562): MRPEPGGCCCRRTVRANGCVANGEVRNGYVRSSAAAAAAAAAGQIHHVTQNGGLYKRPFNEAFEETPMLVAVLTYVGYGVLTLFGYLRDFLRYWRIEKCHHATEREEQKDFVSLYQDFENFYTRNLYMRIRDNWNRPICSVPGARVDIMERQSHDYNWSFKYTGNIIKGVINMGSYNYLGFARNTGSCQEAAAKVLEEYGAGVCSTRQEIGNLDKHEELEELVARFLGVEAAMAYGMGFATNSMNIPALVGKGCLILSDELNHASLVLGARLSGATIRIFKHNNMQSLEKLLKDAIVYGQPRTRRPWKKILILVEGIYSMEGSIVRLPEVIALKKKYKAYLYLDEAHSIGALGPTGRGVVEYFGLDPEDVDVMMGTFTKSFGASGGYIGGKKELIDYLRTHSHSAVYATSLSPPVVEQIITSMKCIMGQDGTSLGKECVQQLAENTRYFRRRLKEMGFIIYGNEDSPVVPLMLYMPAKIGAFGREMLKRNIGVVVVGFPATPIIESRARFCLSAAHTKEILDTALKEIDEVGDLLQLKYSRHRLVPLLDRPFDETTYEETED
T1 sequence (O15269 1-473 partner): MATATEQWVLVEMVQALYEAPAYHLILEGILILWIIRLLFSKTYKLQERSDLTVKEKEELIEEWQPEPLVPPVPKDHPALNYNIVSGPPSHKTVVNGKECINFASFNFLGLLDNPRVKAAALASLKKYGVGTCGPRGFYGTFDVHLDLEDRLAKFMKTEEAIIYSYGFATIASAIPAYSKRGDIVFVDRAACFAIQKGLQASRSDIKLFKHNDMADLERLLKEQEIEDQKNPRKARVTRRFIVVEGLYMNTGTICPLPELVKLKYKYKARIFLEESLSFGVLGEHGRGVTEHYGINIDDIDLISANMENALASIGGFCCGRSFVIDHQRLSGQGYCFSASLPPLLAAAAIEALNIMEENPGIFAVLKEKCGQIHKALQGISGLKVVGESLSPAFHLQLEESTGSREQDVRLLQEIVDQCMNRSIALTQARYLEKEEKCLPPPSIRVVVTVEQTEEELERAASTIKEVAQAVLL
T1 sequence (Q969W0 1-71 partner): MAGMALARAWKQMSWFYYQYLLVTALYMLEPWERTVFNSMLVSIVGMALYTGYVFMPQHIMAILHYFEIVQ
Put plainly: SPT flashplate assay. It is filed as biochemical. To be noted: SPTISF IC50 (nM).
Broadly, the IC50 is the concentration at which inhibition is half-maximal. `O=C(CN1CCC(n2c(=O)[nH]c3cc(-c4noc(=O)[nH]4)ccc32)CC1)c1ccc(Cl)cc1` [Example 37, 1-{1-[2-(4-chlorophenyl)-2-oxoethyl]piperidin-4-yl}-5-(5-oxo-4,5-dihydro-1,2,4-oxadiazol-3-yl)-1,3-dihydro-2H-benzimidazol-2-one] displayed an IC50 of 1.68 nM.

The same test, now with this note: microsomes of HEK 293 LCB2 cells, 3H-serine and palmitoyl CoA, phospholipid coated flashplate, 18-24 hours at room temperature; read-out: SPTISF IC50.
For the compound `CCNC(=O)c1ccc2c(c1)n(C)c(=O)n2C1CCN(CC(=O)N2CCC(C)(C)CC2)CC1` [Example 33, 1-[2-(4,4-dimethylpiperidin-1-yl)-2-oxoethyl]-4-{5-[(ethylamino)carbonyl]-3-methyl-2-oxo-2,3-dihydro-1H-benzimidazol-1-yl}piperidinium chloride], the half-maximal inhibitory concentration (IC50) came out at 59.1 nM.

Turning to `CC1(C)CCN(C(=O)CN2CCC(n3c(=O)[nH]c4cc(S(C)(=O)=O)ccc43)CC2)CC1` [Example 39, 1-{1-[2-(4,4-dimethylpiperidin-1-yl)-2-oxoethyl]piperidin-4-yl}-5-(methylsulfonyl)-1,3-dihydro-2H-benzimidazol-2-one], the half-maximal inhibitory concentration (IC50) was determined as 47.9 nM.

`CC1(C)CCN(C(=O)CN2CCC(n3c(=O)[nH]c4cc(S(C)(=O)=O)ccc43)CC2)CC1` [Example 40, 1-{1-[2-(4,4-dimethylpiperidin-1-yl)-2-oxoethyl]piperidin-4-yl}-5-(methylsulfonyl)-1,3-dihydro-2H-benzimidazol-2-one hydrochloride]: the IC50 was determined as 12.9 nM.

`CS(=O)(=O)c1ccc2c(c1)[nH]c(=O)n2C1CCN(CC(=O)C2CCCCC2)CC1` [Example 41, 1-[1-(2-cyclohexyl-2-oxoethyl)piperidin-4-yl]-5-(methylsulfonyl)-1,3-dihydro-2H-benzimidazol-2-one]: the half-inhibitory concentration (IC50) was 365 nM.

On to `CC1CCC(C(=O)CN2CCC(n3c(=O)[nH]c4cc(S(C)(=O)=O)ccc43)CC2)CC1` (stereo not shown) [Example 42, 1-{1-[2-(4-methylcyclohexyl)-2-oxoethyl]piperidin-4-yl}-5-(methylsulfonyl)-1,3-dihydro-2H-benzimidazol-2-one], for which the IC50 turned out to be 59 nM.

On to `COC1CCC(C(=O)CN2CCC(n3c(=O)[nH]c4cc(S(C)(=O)=O)ccc43)CC2)CC1` (stereo not shown) [Example 43, 1-{1-[2-(4-methoxycyclohexyl)-2-oxoethyl]piperidin-4-yl}-5-(methylsulfonyl)-1,3-dihydro-2H-benzimidazol-2-one], for which the IC50 worked out at 301 nM.

Turning to `CS(=O)(=O)c1ccc2c(c1)[nH]c(=O)n2C1CCN(CC(=O)C2CCC(C(F)(F)F)CC2)CC1` (stereo not shown) [Example 44, 1-{1-[2-(4-trifluoromethylcyclohexyl)-2-oxoethyl]piperidin-4-yl}-5-(methylsulfonyl)-1,3-dihydro-2H-benzimidazol-2-one], the IC50 is 51.7 nM.

Take `CC(C)(C)C1CCC(C(=O)CN2CCC(n3c(=O)[nH]c4cc(S(C)(=O)=O)ccc43)CC2)CC1` (stereo not shown) [Example 45, 1-{1-[2-(4-tert-butylcyclohexyl)-2-oxoethyl]piperidin-4-yl}-5-(methylsulfonyl)-1,3-dihydro-2H-benzimidazol-2-one]: the IC50 was determined as 333 nM.

In the case of `COC1(C)CCC(C(=O)CN2CCC(n3c(=O)[nH]c4cc(S(C)(=O)=O)ccc43)CC2)CC1` (stereo not shown) [Example 47, 1-{1-[2-(4-methoxy-4-methylcyclohexyl)-2-oxoethyl]piperidin-4-yl}-5-(methylsulfonyl)-1,3-dihydro-2H-benzimidazol-2-one], the 50% inhibitory concentration (IC50) turned out to be 508 nM.

Take `CC1(C(=O)CN2CCC(n3c(=O)[nH]c4cc(S(C)(=O)=O)ccc43)CC2)CCCCC1` [Example 48, 1-{1-[2-(1-methylcyclohexyl)-2-oxoethyl]piperidin-4-yl}-5-(methylsulfonyl)-1,3-dihydro-2H-benzimidazol-2-one]: the IC50 was found to be 4400 nM.

Turning to `CNC(=O)c1cc2[nH]c(=O)n(C3CC4CCC(C3)N4CC(=O)N3CCC(C)(OC)CC3)c2cc1F` (stereo not shown) [Example 49, 6-fluoro-1-{8-[2-(4-methoxy-4-methylpiperidin-1-yl)-2-oxoethyl]-8-azabicyclo[3.2.1]oct-3-yl}-N-methyl-2-oxo-2,3-dihydro-1H-benzimidazole-5-carboxamide trifluloroacetate], the IC50 was 165 nM.

Turning to `COC1(C)CCN(C(=O)CN2CCC(n3c(=O)[nH]c4cc(C(C)=O)ccc43)CC2)CC1` [Example 55, 5-acetyl-1-{1-[2-(4-methoxy-4-methylpiperidin-1-yl)-2-oxoethyl]piperidin-4-yl}-1,3-dihydro-2H-benzimidazol-2-one; HCl salt], the IC50 is 71 nM.

(Values after patent publication US20080287479A1, “INHIBITORS OF SERINE PALMITOYLTRANSFERASE” (Pfizer Inc, priority 2006, published 2008).)
